From patent US20230167073A1 (Teijin Pharma Limited, priority 2020, published 2023)

Molecular target: T1, Human TRPC6 (Homo sapiens, UniProt Q9Y210)
T1 construct: expressed in transfected cells
T1 sequence (Q9Y210 1-931): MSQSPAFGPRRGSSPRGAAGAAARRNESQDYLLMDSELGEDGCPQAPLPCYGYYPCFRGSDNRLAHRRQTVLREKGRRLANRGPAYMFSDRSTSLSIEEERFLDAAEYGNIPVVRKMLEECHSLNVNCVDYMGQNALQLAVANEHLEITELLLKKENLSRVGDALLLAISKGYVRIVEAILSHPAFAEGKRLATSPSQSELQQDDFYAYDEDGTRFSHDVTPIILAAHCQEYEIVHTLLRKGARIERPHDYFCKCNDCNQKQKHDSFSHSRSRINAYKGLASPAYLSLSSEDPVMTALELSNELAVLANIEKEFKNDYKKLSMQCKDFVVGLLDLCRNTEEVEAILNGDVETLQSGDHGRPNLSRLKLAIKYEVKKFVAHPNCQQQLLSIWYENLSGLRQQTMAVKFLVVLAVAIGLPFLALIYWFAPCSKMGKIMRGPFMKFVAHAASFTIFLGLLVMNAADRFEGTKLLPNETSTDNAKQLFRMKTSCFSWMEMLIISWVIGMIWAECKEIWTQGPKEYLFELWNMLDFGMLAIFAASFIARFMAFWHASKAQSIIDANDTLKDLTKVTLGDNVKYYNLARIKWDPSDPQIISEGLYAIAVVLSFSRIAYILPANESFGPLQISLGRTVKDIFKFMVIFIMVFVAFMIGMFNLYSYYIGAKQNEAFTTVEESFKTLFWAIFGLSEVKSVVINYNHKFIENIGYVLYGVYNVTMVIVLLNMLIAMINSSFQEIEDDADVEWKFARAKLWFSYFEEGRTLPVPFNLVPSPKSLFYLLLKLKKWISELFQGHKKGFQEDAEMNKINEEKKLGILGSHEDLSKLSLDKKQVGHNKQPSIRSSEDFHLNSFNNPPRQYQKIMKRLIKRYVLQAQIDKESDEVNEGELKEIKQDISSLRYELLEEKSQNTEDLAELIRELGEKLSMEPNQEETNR
Assay: Evaluation of TRPC6 channel inhibitory activity (1), FLIPR Calcium 5 Assay Kit, OAG stimulation (Compound Nos. 1-1293)
Type: cell-based
Settings: not given
In short: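 TRPC6 (human) stable cells, 24 h culture; Ca5 no-wash dye + probenecid 30 min; cpd 20 min; OAG 30 μM final; ΔF (pre-cpd min to post-OAG max); 0%/100% = no cpd / no cpd + no OAG; 4PL → pIC50, binned +/++/+++.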

Row | Structure (SMILES) | IC50
1 | Cc1cc(Oc2cc(C#N)ccc2-c2ncc(CCN)cn2)cc(N2C3CCC2COC3)n1 [compound 445, 4-[5-(2-aminoethyl)pyrimidin-2-yl]-3-[2-methyl-6-(3-oxa-8-azabicyclo[3.2.1]octan-8-yl)pyridin-4-yl]oxybenzonitrile] | < 10 nM
2 | Cc1cc(Oc2cc(C#N)ccc2-c2ccc([C@H](O)CN)cn2)cc(N2C3CCC2COC3)n1 [compound 446, 4-[5-[(1S)-2-amino-1-hydroxyethyl]pyridin-2-yl]-3-[2-methyl-6-(3-oxa-8-azabicyclo[3.2.1]octan-8-yl)pyridin-4-yl]oxybenzonitrile] | < 10 nM

Same assay, conditions: Human TRPC6 stably-expressing cells, OAG 30 μM, FLIPR Calcium 5 Assay Kit; read-out: Inhibitory activity (pIC50 class) (converted)

Row | Structure (SMILES) | IC50
3 | Cc1cc(Oc2cc(C#N)ccc2-c2ccc(C[C@H](N)C(=O)O)cc2)cc(N2CCOCC2)n1 [compound 435, (2S)-2-amino-3-[4-[4-cyano-2-(2-methyl-6-morpholin-4-ylpyridin-4-yl)oxyphenyl]phenyl]propanoic acid] | > 1000 nM
4 | Cn1nc(C2CC2)cc1Oc1cc(C#N)ccc1-c1ccc(C[C@H](N)C(=O)O)cc1 [compound 436, (2S)-2-amino-3-[4-[4-cyano-2-(5-cyclopropyl-2-methylpyrazol-3-yl)oxyphenyl]phenyl]propanoic acid] | > 1000 nM
5 | Cc1cc(Oc2cc(C#N)ccc2-c2ccc([C@H](O)CN)cn2)cc(C)n1 [compound 437, 4-[5-[(1S)-2-amino-1-hydroxyethyl]pyridin-2-yl]-3-(2,6-dimethylpyridin-4-yl)oxybenzonitrile] | 10 to 1000 nM
6 | Cc1cc(Oc2cc(C#N)ccc2-c2ncc(CCN)cn2)cc(C)n1 [compound 438, 4-[5-(2-aminoethyl)pyrimidin-2-yl]-3-(2,6-dimethylpyridin-4-yl)oxybenzonitrile] | 10 to 1000 nM
7 | Cc1cc(Oc2cc(C#N)ccc2-c2ncc(CCN)cn2)cc(N2CCO[C@H](C(F)F)C2)n1 [compound 439, 4-[5-(2-aminoethyl)pyrimidin-2-yl]-3-[2-[(2S)-2-(difluoromethyl)morpholin-4-yl]-6-methylpyridin-4-yl]oxybenzonitrile] | < 10 nM
8 | Cn1nc(C2CCOCC2)cc1Oc1cc(C#N)ccc1-c1ccc(CN)cn1 [compound 440, 4-[5-(aminomethyl)pyridin-2-yl]-3-[2-methyl-5-(oxan-4-yl)pyrazol-3-yl]oxybenzonitrile] | < 10 nM
9 | Cn1nc(C2CCOCC2)cc1Oc1cc(C#N)ccc1-c1ncc(CN)cn1 [compound 441, 4-[5-(aminomethyl)pyrimidin-2-yl]-3-[2-methyl-5-(oxan-4-yl)pyrazol-3-yl]oxybenzonitrile] | < 10 nM
10 | Cn1nc(C2CCOCC2)cc1Oc1cc(C#N)ccc1-c1ccc([C@H](O)CN)cn1 [compound 442, 4-[5-[(1S)-2-amino-1-hydroxyethyl]pyridin-2-yl]-3-[2-methyl-5-(oxan-4-yl)pyrazol-3-yl]oxybenzonitrile] | 10 to 1000 nM
11 | Cn1nc(C2CC2)cc1Oc1cc(C#N)ccc1-c1cc(CN)ccn1 [compound 443, 4-[4-(aminomethyl)pyridin-2-yl]-3-(5-cyclopropyl-2-methylpyrazol-3-yl)oxybenzonitrile] | 10 to 1000 nM
12 | Cc1cc(Oc2cc(C#N)ccc2-c2ncc(CCN)cn2)cc(N2CCO[C@@H](C(F)F)C2)n1 [compound 444, 4-[5-(2-aminoethyl)pyrimidin-2-yl]-3-[2-[(2R)-2-(difluoromethyl)morpholin-4-yl]-6-methylpyridin-4-yl]oxybenzonitrile] | < 10 nM
13 | Cc1nc(Oc2cc(C#N)ccc2-c2ncc(CCN)cn2)cc(N2CCCCC2)n1 [compound 447, 4-[5-(2-aminoethyl)pyrimidin-2-yl]-3-(2-methyl-6-piperidin-1-ylpyrimidin-4-yl)oxybenzonitrile] | < 10 nM
14 | Cc1nc(Oc2cc(C#N)ccc2-c2ncc(CCN)cn2)cc(N2CCCC2)n1 [compound 448, 4-[5-(2-aminoethyl)pyrimidin-2-yl]-3-(2-methyl-6-pyrrolidin-1-ylpyrimidin-4-yl)oxybenzonitrile] | < 10 nM
15 | Cc1nc(Oc2cc(C#N)ccc2-n2cc(CC(N)C(=O)O)c3ccccc32)cc(-c2ccccc2)n1 (stereo not shown) [compound 449, 2-amino-3-[1-[4-cyano-2-(2-methyl-6-phenylpyrimidin-4-yl)oxyphenyl]indol-3-yl]propanoic acid] | > 1000 nM
16 | Cn1nc(C2CC2)cc1Oc1cc(C#N)ccc1-c1cc(N)ccn1 [compound 450, 4-(4-aminopyridin-2-yl)-3-(5-cyclopropyl-2-methylpyrazol-3-yl)oxybenzonitrile] | > 1000 nM
17 | Cn1nc(C2CC2)cc1Oc1cc(C#N)ccc1-c1cccc(N)n1 [compound 451, 4-(6-aminopyridin-2-yl)-3-(5-cyclopropyl-2-methylpyrazol-3-yl)oxybenzonitrile] | > 1000 nM
18 | Cn1nc(C2CC2)cc1Oc1cc(C#N)ccc1-c1ccc2ccnc(N)c2c1 [compound 452, 4-(1-aminoisoquinolin-7-yl)-3-(5-cyclopropyl-2-methylpyrazol-3-yl)oxybenzonitrile] | > 1000 nM
19 | Cn1nc(C2CC2)cc1Oc1cc(C#N)ccc1-c1cccc2c(N)nccc12 [compound 453, 4-(1-aminoisoquinolin-5-yl)-3-(5-cyclopropyl-2-methylpyrazol-3-yl)oxybenzonitrile] | > 1000 nM
20 | Cc1cc(Oc2cc(C#N)ccc2-c2ncc(CCN)cn2)cc(N2CC3CCC(C2)O3)n1 [compound 454, 4-[5-(2-aminoethyl)pyrimidin-2-yl]-3-[2-methyl-6-(8-oxa-3-azabicyclo[3.2.1]octan-3-yl)pyridin-4-yl]oxybenzonitrile] | < 10 nM
21 | Cc1cc(Oc2cc(C#N)ccc2-c2ncc(CCN)cn2)cc(N2CCNC(=O)C2)n1 [compound 455, 4-[5-(2-aminoethyl)pyrimidin-2-yl]-3-[2-methyl-6-(3-oxopiperazin-1-yl)pyridin-4-yl]oxybenzonitrile] | > 1000 nM
22 | Cc1cc(Oc2cc(C#N)ccc2-c2ccc(CCN)cn2)cc(N2CCNC(=O)C2)n1 [compound 456, 4-[5-(2-aminoethyl)pyridin-2-yl]-3-[2-methyl-6-(3-oxopiperazin-1-yl)pyridin-4-yl]oxybenzonitrile] | > 1000 nM
23 | Cn1nc(-c2ccccc2)cc1Oc1cc(C#N)ccc1-c1ccc2c(CN)noc2c1 [compound 457, 4-[3-(aminomethyl)-1,2-benzoxazol-6-yl]-3-(2-methyl-5-phenylpyrazol-3-yl)oxybenzonitrile] | > 1000 nM
24 | COCCN(C)c1cc(Oc2cc(C#N)ccc2-c2ncc(CCN)cn2)cc(C)n1 [compound 458, 4-[5-(2-aminoethyl)pyrimidin-2-yl]-3-[2-[2-methoxyethyl(methyl)amino]-6-methylpyridin-4-yl]oxybenzonitrile] | < 10 nM
25 | COCCN(C)c1cc(Oc2cc(C#N)ccc2-c2ccc(CCN)cn2)cc(C)n1 [compound 459, 4-[5-(2-aminoethyl)pyridin-2-yl]-3-[2-[2-methoxyethyl(methyl)amino]-6-methylpyridin-4-yl]oxybenzonitrile] | < 10 nM
26 | CCc1cc(Oc2cc(C#N)ccc2-n2cc(CC(N)C(=O)O)c3ccccc32)n(C)n1 (stereo not shown) [compound 460, 2-amino-3-[1-[4-cyano-2-(5-ethyl-2-methylpyrazol-3-yl)oxyphenyl]indol-3-yl]propanoic acid] | > 1000 nM
27 | Cc1cc(Oc2cc(C#N)ccc2-c2ncc(CCN)cn2)cc(NC(C)C)n1 [compound 461, 4-[5-(2-aminoethyl)pyrimidin-2-yl]-3-[2-methyl-6-(propan-2-ylamino)pyridin-4-yl]oxybenzonitrile] | < 10 nM
28 | Cc1cc(Oc2cc(C#N)ccc2-c2ncc(C3(N)CC3)cn2)cc(N2CCOCC2)n1 [compound 462, 4-[5-(1-aminocyclopropyl)pyrimidin-2-yl]-3-(2-methyl-6-morpholin-4-ylpyridin-4-yl)oxybenzonitrile] | > 1000 nM
29 | Cn1nc(C2CC2)cc1Oc1cc(C#N)ccc1-c1ncc(C2(N)CC2)cn1 [compound 463, 4-[5-(1-aminocyclopropyl)pyrimidin-2-yl]-3-(5-cyclopropyl-2-methylpyrazol-3-yl)oxybenzonitrile] | > 1000 nM
30 | Cc1cc(Oc2cc(C#N)ccc2-c2ccc(CCN)cn2)cc(N2CCN(C)C(=O)C2)n1 [compound 464, 4-[5-(2-aminoethyl)pyridin-2-yl]-3-[2-methyl-6-(4-methyl-3-oxopiperazin-1-yl)pyridin-4-yl]oxybenzonitrile] | > 1000 nM
31 | Cc1cc(Oc2cc(C#N)ccc2-c2ncc(CCN)cn2)cc(N2CCN(C)C(=O)C2)n1 [compound 465, 4-[5-(2-aminoethyl)pyrimidin-2-yl]-3-[2-methyl-6-(4-methyl-3-oxopiperazin-1-yl)pyridin-4-yl]oxybenzonitrile] | > 1000 nM
